What is called LC50 is the concentration that kills 50% of the test population. Low readings indicate greater toxicity, high ones lower toxicity.

The text below walks through data of paper PMC10794345, “Analysis of vascular disruption in zebrafish embryos as an endpoint to predict developmental toxicity” (Archives of Toxicology, 2023).

For series [1], the system named is zebrafish embryos (wild-type strain OBI/WIK). In words: Morphological features and heart rate by automated imaging (VAST/FishInspector) at 96 hpf. It counts as in vivo, zebrafish (D. rerio). The following applies: embryos exposed beginning at 3 hpf; not observed when exposure started at 24 hpf. Here is the method:
Automated imaging of zebrafish developmental phenotypes was conducted with the VAST BioImager (Union Biometrica, Gees, Belgium (Pardo-Martin et al. [2010]; Pulak [2016])) equipped with a large particle sampler (LP sampler, Union Biometrica). Lateral and dorsoventral images were obtained at 10 µm resolution at 96 hpf. Prior to imaging, all embryos were anesthetized by adding 20 µl tricaine solution ([…] tricaine, TRIS 26 mM, pH 7.5 ± 0.1) to each well of the microplate. Images were processed with an amended version (1.70, available via https://codebase.helmholtz.cloud/ufz/tb3-cite/biotox/FishInspector) of the FishInspector imaging software (Teixidó et al. [2019]). The FishInspector software allows to automatically annotate morphological features including body contour, eye, lower mouth tip, pericard, otoliths, notochord, swimbladder, and yolk and to calculate diverse metrics such as feature length, size, curvature indices, or angle between feature-connecting lines. In contrast to the previously published version, FishInspector 1.70 detects morphological features based on a deep learning approach using the Matlab Neural Network Toolbox and Matlab Image Processing Toolbox (Mathworks, Natick, […]). In addition, metric calculation was included into the software, and meta information such as test compound, exposure window or test concentration was associated to each image using a microplate layout file. To facilitate training of the models, two additional programs were generated in Matlab including FishTrainer 0.9 (for training of semantic segmentation models of structural features) and FishClassificator 0.9 (for training of position classes to be used in automated flipping of images) available via same repository as FishInspector software. For image training, image size was adjusted to 450 × 300 pixel to reduce computing time. This resolution was sufficient to detect the selected features (data not shown). For training of the deep learning models, approximately 3000 previously annotated images (Teixidó et al. [2022]) were used. The automated annotations were corrected by the user in the event that they were not adequately detecting visible structures. User-bias was avoided by a blinded assessment of images.
FishInspector provided a JSON file corresponding to each image file containing the coordinates of all features and the applied smoothing factor. All images and videos used for this publication can be found at the BioImage Archive S-BIAD954 (https://www.ebi.ac.uk/biostudies/bioimages/studies/S-BIAD954). For each image, a csv file was generated containing calculated metrics. The software automatically provides a summary table containing metrics r of individual embryos. […] The analyzed file includes endpoint names based on the FishInspector software. […]

Series [2] is described as follows: Lethality of zebrafish embryos at 96 hpf. It counts as in vivo, zebrafish (D. rerio). The following applies: OBI/WIK wild-type, zebrafish, in vivo, other: immersion of embryos in exposure media, ± 95% confidence intervals. Here is the method: Fertilized and normally developed embryos were selected according to Kimmel et al. ([1995]) with a dissection microscope (Olympus SZx7-ILLT) at 1 hpf. Depending on experiment, exposure was started within 2–3 h post-fertilization (16–128 cell stages) or at 24 hpf. Exposure was conducted in rectangular 96-well microplates (Clear Polystyrene, flat bottom, Uniplate, Whatman, GE Healthcare) covered by a lid with a test volume of 400 µL of exposure media. For each replicate one embryo per well and 16 wells per concentration were assessed. Experiments were performed with at least two replicates on independent days and breeding.
Concentration–response curves were fitted for lethality, heart rate, morphological features as previously described (Teixidó et al. [2019], [2022]). The assessment of lethality and morphological features was based on the percentage of embryos affected. Therefore, morphological endpoints were dichotomized, i.e. feature metrics were converted to the percentage of embryos deviating from controls. An embryo was considered to deviate when it was outside 1.5-fold of the standard deviation range of the mean of the control group. The control mean was determined by pooling control embryos across all experiments (n = 160) (available at git.ufz.de). For heart rate and angiogenesis (number of ISVs) the analysis was based on normalized values, i.e. for each experiment the values of the treatment were divided by the control value. The experiments were designed to calculate effect concentrations based on modelled curve fits. Different concentrations were used in at least two independent replicates, with means of each replicate based on the exposure of 16 different embryos per concentrations. Effect concentration were only modeled when three conditions were met. (1) The Tukey trend test based on the R package "tukeytrend" (Schaarschmidt et al. [2022]) was deriving a maximum p-value of 0.05. (2) The Akaike information criterion (AIC) for the log-logistic model was lower than the AIC for a linear model with slope 0 (lower p values for the letter would indicate that there is no trend in the data). (3) We calculated effect concentrations only if at least 30% of embryos for that endpoint were affected in at least one exposure concentration of (for normalized data) a reduction or increase by 30% was observed.

As to `CN(C)c1ccc(C=C2C(=O)Nc3ccccc32)cc1` [SU4312], the “Swim bladder inflation (in words)” value in series [1] was “impaired swim bladder inflation”.
In the case of `Cc1cc(C)c(/C=C2\C(=O)Nc3ccccc32)[nH]1` [SU5416], the LC50 was found to be 890 ± 420 nM in series [2] (3–96 hpf exposure) and 1930 ± 830 nM in series [2] (24–96 hpf exposure). For the same compound, the “Swim bladder inflation (in words)” value in series [1] is given as “impaired swim bladder inflation”.
In series [2] (3–96 hpf exposure), `CNC(=O)c1cc(Oc2ccc(NC(=O)Nc3ccc(Cl)c(C(F)(F)F)c3)cc2)ccn1` [Sorafenib] came in with a median lethal concentration (LC50) of 2800 ± 310 nM. Moreover, the “Swim bladder inflation (in words)” value in series [1] was “impaired swim bladder inflation”.
